# Read-outs that look alike come from different tables or passages of the source.
# What was measured:
# Assay type in all cases: cell-based
# [1] = test system: E. coli MC4100; test: Minimal inhibitory concentration, E. coli MC4100; conditions: 16 hour minimal inhibitory concentration at 37° C., read-out: MIC (μM) E. coli MC4100 ara+
# Procedure: (§1) General Procedure for Determination of Minimal Inhibitory Concentrations
# (§2) Overnight cultures (5 mL) of bacterial strains were grown in LB media or TSA media (for S. aureus) at 37° C. and with shaking at 220 rpm until saturation. The overnight culture was diluted serially 1:100 (50 μL in 5 mL sterile media) and then 1:100 (250 μL in 25 mL sterile media). The 25 mL of diluted culture was then dispensed to a sterile 96 well plate (Corning #3370). 198 μL of culture were dispensed into row A and 100 μL of this culture were dispensed into rows B-H. Aminocoumarin compound (DMSO stock) were added to the first row and then the row was mixed by pipetting. 100 μL of culture from row A were transferred to row B and the serial dilution continued until the final 100 μL from row H were discarded. The plate was incubated without shaking in a 37° C. for 16 hours and then read by visible light spectrophotometer (Molecular Devices) at 600 nm. The minimal inhibitory concentration (MIC) was determined as the lowest concentration of compound concentration that inhibited the growth of bacteria.
# (§3) The compounds of the invention were assessed for activities against the pathogens S. aureus RN4220 and MW2, E. cloacae 13047, A. baumannii 19606, K. pneumoniae 700721, E. coli MC4100, 25922. All activities are reported in micromolar (uM) and are 16 hour minimal inhibitory concentrations at 37° C. The assay is detailed in Example 11 and is titled “General Procedure for Determination of Minimal Inhibitory Concentrations.”
# [2] = test system: E. cloacae 13047; test: Minimal inhibitory concentration, E. cloacae 13047; conditions: 16 hour minimal inhibitory concentration at 37° C., read-out: MIC (μM) E. cloacae 13047
# Procedure: as §1, §2, §3
# [3] = test system: A. baumannii 19606; test: Minimal inhibitory concentration, A. baumannii 19606; conditions: 16 hour minimal inhibitory concentration at 37° C., read-out: MIC (μM) A. baumannii 19606
# Procedure: as §1, §2, §3
# [4] = test system: E. coli 25922; test: Minimal inhibitory concentration, E. coli 25922; conditions: 16 hour minimal inhibitory concentration at 37° C., read-out: MIC (μM) E. coli 25922
# Procedure: as §1, §2, §3
# [5] = test system: S. aureus RN4220; test: Minimal inhibitory concentration, S. aureus RN4220; conditions: 16 hour minimal inhibitory concentration at 37° C., read-out: MIC (μM) S. aureus RN4220
# Procedure: as §1, §2, §3
# [6] = test system: S. aureus MW2; test: Minimal inhibitory concentration, S. aureus MW2; conditions: 16 hour minimal inhibitory concentration at 37° C., read-out: MIC (μM) S. aureus MW2 (MRSA)
# Procedure: as §1, §2, §3
# [7] = test system: K. pneumoniae 700721; test: Minimal inhibitory concentration, K. pneumoniae 700721; conditions: 16 hour minimal inhibitory concentration at 37° C., read-out: MIC (μM) K. pneumoniae 700721
# Procedure: as §1, §2, §3
# [8] = Acinetobacter baumannii, 19606, 16 h
# [9] = Staphylococcus aureus, RN4220, 16 h
# [10] = Staphylococcus aureus, MRSA, 16 h
Structure (SMILES),"MIC ([1]; Escherichia coli, MC4100, 16 h) [µM]","MIC ([2]; Enterobacter cloacae, 13047) [µM]","MIC [3, 8] [µM]","MIC ([4]; Escherichia coli, 25922, 16 h) [µM]","MIC [5, 9] [µM]","MIC [6, 10] [µM]","MIC ([7]; Klebsiella pneumoniae, 700721) [µM]",MIC [1] [µM],MIC [2] [µM],MIC [3] [µM],MIC [4] [µM],MIC [5] [µM],MIC [6] [µM],MIC [7] [µM]
CO[C@@H]1[C@@H](OC(N)=O)[C@@H](O)[C@H](Oc2ccc3c(O)c(NC(=O)c4ccc(F)c(Oc5ccccc5)c4)c(=O)oc3c2C)OC1(C)C [Compound 254],2.4,79,> 50,5,10,10,20,–,–,–,–,–,–,–
CO[C@@H]1[C@@H](OC(N)=O)[C@@H](O)[C@H](Oc2ccc3c(O)c(NC(=O)c4ccc(Br)c(Oc5ccccc5)c4)c(=O)oc3c2C)OC1(C)C [Compound 258],4.5,> 100,> 50,18,5,4.5,20,–,–,–,–,–,–,–
CO[C@@H]1[C@@H](OC(N)=O)[C@@H](O)[C@H](Oc2ccc3c(O)c(NC(=O)c4cccc(Br)c4)c(=O)oc3c2C)OC1(C)C [Compound 232],> 200,> 100,> 50,> 200,82,82,> 100,–,–,–,–,–,–,–
COc1cccc(Oc2cccc(C(=O)Nc3c(O)c4ccc(O[C@@H]5OC(C)(C)[C@H](OC)[C@@H](OC(N)=O)[C@H]5O)c(C)c4oc3=O)c2)c1 [Compound 240],4.5,> 100,> 50,38,19.2,19.2,> 100,–,–,–,–,–,–,–
CO[C@@H]1[C@@H](OC(N)=O)[C@@H](O)[C@H](Oc2ccc3c(O)c(NC(=O)c4cccc(-c5ccc(F)c(F)c5)c4)c(=O)oc3c2C)OC1(C)C [Compound 219],39,> 100,> 50,20,5,5,78,–,–,–,–,–,–,–
CO[C@@H]1[C@@H](OC(N)=O)[C@@H](O)[C@H](Oc2ccc3c(O)c(NC(=O)c4cc(Oc5ccccc5)ccn4)c(=O)oc3c2C)OC1(C)C [Compound 239],> 200,> 100,> 50,> 200,20,20,> 100,–,–,–,–,–,–,–
CO[C@@H]1[C@@H](O)[C@@H](OC(=O)c2ccc[nH]2)[C@H](Oc2ccc3c(O)c(NC(=O)c4ccc(O)c(CC=C(C)C)c4)c(=O)oc3c2C)OC1(C)C [Compound 113],–,–,–,–,–,–,–,>200,>100,2,>200,0.5,0.24,>100
CO[C@@H]1[C@@H](OC(N)=O)[C@@H](O)[C@H](Oc2ccc3c(O)c(NC(=O)c4ccc(C(=O)c5ccccc5)cc4)c(=O)oc3c2C)OC1(C)C [Compound 233],> 200,> 100,> 50,> 200,40,40,> 100,–,–,–,–,–,–,–
CO[C@@H]1[C@@H](OC(N)=O)[C@@H](O)[C@H](Oc2ccc3c(O)c(NC(=O)c4ccc(O)c(C/C=C/CCC(=O)O)c4)c(=O)oc3c2C)OC1(C)C [Compound 203],> 200,> 100,> 50,> 200,> 100,> 100,> 100,–,–,–,–,–,–,–
CO[C@@H]1[C@@H](OC(N)=O)[C@@H](O)[C@H](Oc2ccc3c(O)c(NC(=O)c4ccc(Br)cc4)c(=O)oc3c2C)OC1(C)C [Compound 204],> 200,> 100,> 50,> 200,82,82,> 100,–,–,–,–,–,–,–
CO[C@@H]1[C@@H](OC(N)=O)[C@@H](O)[C@H](Oc2ccc3c(O)c(NC(=O)c4cccc(Oc5ccc(C(F)(F)F)cc5)c4)c(=O)oc3c2C)OC1(C)C [Compound 251],4.5,> 100,> 50,9,9,9,> 100,–,–,–,–,–,–,–
Cc1c(O)ccc2c(O)c(NC(=O)c3ccc(I)c(-c4ccccc4)c3)c(=O)oc12 [Compound 228],> 200,> 100,> 50,> 200,97,97,> 100,–,–,–,–,–,–,–
CO[C@@H]1[C@H]2OP(=O)(c3ccccc3)O[C@H]2[C@H](Oc2ccc3c(O)c(NC(=O)c4ccc(O)c(CC=C(C)C)c4)c(=O)oc3c2C)OC1(C)C (some centres unmarked) [Compound 208],> 200,> 100,> 50,> 200,> 100,> 100,> 100,–,–,–,–,–,–,–
CO[C@@H]1[C@@H](OC(N)=O)[C@@H](O)[C@H](Oc2ccc3c(O)c(NC(=O)c4cccc(Oc5ccc(F)cc5)c4)c(=O)oc3c2C)OC1(C)C [Compound 249],5,> 100,> 50,< 1.56,20,20,20,–,–,–,–,–,–,–
CO[C@@H]1[C@@H](OC(N)=O)[C@@H](O)[C@H](Oc2ccc3c(O)c(NC(=O)c4ccc(I)cc4)c(=O)oc3c2C)OC1(C)C [Compound 225],–,> 100,> 50,> 200,38,38,> 100,–,–,–,–,–,–,–
CO[C@@H]1[C@@H](OC(N)=O)[C@@H](O)[C@H](Oc2ccc3c(O)c(NC(=O)c4ccc(N=[N+]=[N-])cc4)c(=O)oc3c2C)OC1(C)C [Compound 224],–,> 100,> 50,> 200,88,> 100,> 100,–,–,–,–,–,–,–
